Test results reported in patent publication US9517989B2, “2-cycloalkyl resorcinol cannabinergic ligands” (priority 2012, dated 2016).

Columns and labels:
C57BL/6 J mice = test: Hypothermia assay (rectal temperature); format: in vivo; settings: dose of 3 mg/kg, FIG. 2
Protocol: Some of the disclosed compounds were tested in vivo using two well defined rodent assays for cannabinergic activity, the analgesia and the hypothermia assays. The analgesia assay (tail immersion test) determines the ability of the test compound to activate cannabinergic signaling, through modulation of cannabinoid receptors, and thereby reduce nociceptive pain. The hypothermia test determines the ability of a test compound to act as a central CB1 agonist and decrease the body temperature. […] The details of both assays are described below.
C57BL/6 J mice (Charles River Breeding Laboratories, Wilmington, Mass., USA) weighing 30 to 35 g were group housed five to a cage, in a temperature-controlled (20° C.) animal facility. Mice were habituated to the animal facility for at least 1 week prior to experiments with a 12-h light/dark cycle (lights are on at 7:00 AM). Mice were given free access to food and water. Experimentally naïve mice were used for each dose condition, and the mice were tested during the light phase.
Rectal temperature was measured in mice using a rectal probe of a digital laboratory thermometer, RET-3-ISO, type T thermocouple (Physitemp Instruments Inc, Clifton, N.J.). The lubricated probe was inserted approximately 2.0 cm into the rectum for approximately 30 sec, prior to each recording. […]

CB1 [1] = target: T1, CB1 (Rattus norvegicus, UniProt P20272); test: cyclic adenosine monophosphate (cAMP) assay at CB1; format: cell-based
Protocol: (§1) Functional characterization of some of the disclosed compounds was performed by using the cyclic adenosine monophosphate (cAMP) assay. The functional potency of the compound is represented by the EC50 value. The lower the EC50 value, the higher the functional potency. A detailed description of the cyclic adenosine monophosphate (cAMP) assay is given in Nikas et al. J. Med. Chem. (2010) 6996.

CB1 [2] = target: T1, CB1; test: CB1 receptor binding affinity (Ki)
Protocol: Some disclosed compounds were tested for CB1 and CB2 receptor binding affinity (Tables 1, 2, 3, 4, 5, 6). As used herein “binding affinity” is represented by the Ki value. The Ki value is the affinity constant and describes the affinity of the compound for the receptor. […] A detailed description of the methods used to test “binding affinity” of compounds is given in Makriyannis, et al., US 2007, 0135388 and in Papahatjis, et al. J. Med. Chem. (2007) 4048, the content of each of which is hereby incorporated by reference.

CB2 = CB2 (Homo sapiens, UniProt P34972); test: cyclic adenosine monophosphate (cAMP) assay at CB2; format: cell-based
Protocol: as §1

CB2 receptor = CB2 receptor (UniProt P47936); test: CB2 receptor binding affinity (Ki); settings: read-out: CB2 receptor Ki
Protocol: Some disclosed compounds were tested for CB1 and CB2 receptor binding affinity (Tables 1, 2, 3, 4, 5, 6). As used herein “binding affinity” is represented by the Ki value. The Ki value is the affinity constant and describes the affinity of the compound for the receptor. The lower the Ki value, the higher the affinity of the compound for the receptor. A detailed description of the methods used to test “binding affinity” of compounds is given in Makriyannis, et al., US 2007, 0135388 and in Papahatjis, et al. J. Med. Chem. (2007) 4048, the content of each of which is hereby incorporated by reference.

[3] = read-out: Functional Potency (EC50)

T1 sequence (P20272 whole entry): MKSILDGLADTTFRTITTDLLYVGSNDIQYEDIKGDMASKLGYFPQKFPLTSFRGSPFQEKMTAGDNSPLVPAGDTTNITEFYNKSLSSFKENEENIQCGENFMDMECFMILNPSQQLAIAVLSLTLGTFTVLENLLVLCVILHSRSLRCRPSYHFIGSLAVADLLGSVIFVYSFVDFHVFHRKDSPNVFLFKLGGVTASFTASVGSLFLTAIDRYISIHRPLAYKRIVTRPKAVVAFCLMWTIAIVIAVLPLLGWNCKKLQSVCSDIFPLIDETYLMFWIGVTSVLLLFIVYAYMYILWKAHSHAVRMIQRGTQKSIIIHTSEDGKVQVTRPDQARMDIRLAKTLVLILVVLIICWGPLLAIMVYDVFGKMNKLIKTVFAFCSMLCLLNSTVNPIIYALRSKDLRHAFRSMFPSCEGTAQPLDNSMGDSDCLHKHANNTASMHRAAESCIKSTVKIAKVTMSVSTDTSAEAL
Sequence of CB2 (P34972 whole entry, species assumed): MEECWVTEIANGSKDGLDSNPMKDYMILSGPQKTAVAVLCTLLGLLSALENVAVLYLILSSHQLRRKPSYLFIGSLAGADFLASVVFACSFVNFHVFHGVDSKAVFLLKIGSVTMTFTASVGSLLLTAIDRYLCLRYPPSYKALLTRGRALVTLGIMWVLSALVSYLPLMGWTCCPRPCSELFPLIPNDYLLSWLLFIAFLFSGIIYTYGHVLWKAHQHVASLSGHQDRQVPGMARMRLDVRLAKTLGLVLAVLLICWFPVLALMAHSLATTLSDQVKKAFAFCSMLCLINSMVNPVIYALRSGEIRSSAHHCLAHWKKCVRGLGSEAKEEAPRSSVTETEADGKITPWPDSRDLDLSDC

With `C=C(C)[C@H]1CCC(CO)=C[C@@H]1c1c(O)cc(C(C)(C)CCCCN2CCOCC2)cc1O` [Compound 71, 2-[(1S,6S)-3-(Hydroxymethyl)-6-(1-methylethenyl)-2-cyclohexen-1-yl]-5-(6-morpholino-2-methylhexane-2-yl)resorcinol] the centrally mediated hypothermia (C57BL/6 J mice) was “does not show significant hypothermia”, the “Functional Activity” value (CB1 [1]) was “Agonist at CB1” and the Emax (CB1 [1]; read-out: % Efficacy) was 88%. For the same molecule, the EC50 (CB1 [1]; [3]) was 1.4 nM, the Ki (CB1 [2]) was 6 nM and the “Functional Activity” value (CB2) was “Partial agonist at CB2”. The Emax (CB2; read-out: % Efficacy) was 42%, the EC50 (CB2; [3]) was 0.4 nM and the Ki (CB2 receptor) was 3 nM.
